Experimental data published in article PMC12282101, “Heat shock protein 90 chaperone activity is required for hepatitis A virus replication” (Journal of Virology, 2025).
Structures can show the parent of a compound that is named as a salt.

Key:
Huh-7.5.1 cells = test: Cell viability in the chemical screen (Cell TiterGlo); settings: 10 µM compound, 72 h
18f-NLuc reporter virus = test: microbe, parasite or virus in culture; type: cell-based, Hepatitis A virus; settings: for activity at 10 µM: Hepatovirus A, Huh-7.5.1, 72 h, read-out: Normalized HAV production

Compound | Viability Percent DMSO (Huh-7.5.1 cells) [Percent DMSO] | activity at 10 µM (18f-NLuc reporter virus) [%] | Normalized HAV production (18f-NLuc reporter virus)
Cc1ccnc2c1NC(=O)c1cccnc1N2C1CC1 [Nevirapine] | 100 | 104 | –
Nc1ccn([C@H]2CC[C@@H](CO)O2)c(=O)n1 [Zalcitabine] | 99 | 98 | –
CC1(C)O[C@H]2CC(=O)OC[C@]23[C@H]2CC[C@@]4(C)[C@H](c5ccoc5)OC(=O)[C@H]5O[C@]54[C@]2(C)C(=O)C[C@@H]13 [Limonin] | 111 | 85 | –
CCC[C@H](NC(=O)[C@@H]1[C@H]2CCC[C@H]2CN1C(=O)[C@@H](NC(=O)[C@@H](NC(=O)c1cnccn1)C1CCCCC1)C(C)(C)C)C(=O)C(=O)NC1CC1 [Telaprevir] | 119 | 73 | –
CO/N=C(\C(=O)N[C@@H]1C(=O)N2C(C(=O)O)=C(C[N+]3(C)CCCC3)CS[C@H]12)c1csc(N)n1 [Cefepime Dihydrochloride Monohydrate] | 116 | 73 | –
O=C1c2cccc(O)c2C(=O)c2c(O)cc(CO)cc21 [Aloe-emodin] | 90 | 118 | –
Darunavir Ethanolate | 111 | – | 1.54
Maraviroc | – | – | 0.94
Nc1ccn([C@@H]2O[C@H](CO)[C@@H](O)[C@@H]2O)c(=O)n1 [Cytarabine] | 97 | 66 | –
Nc1nc(NC2CC2)c2ncn([C@H]3C=C[C@@H](CO)C3)c2n1 [Abacavir] | 119 | 87 | –
Cc1cn([C@@H]2C[C@@H](O)[C@H](CO)O2)c(=O)[nH]c1=O [Telbivudine] | 108 | 156 | –
CN(C)C[C@H](O)Cn1c2ccc(Br)cc2c2cc(Br)ccc21 (racemic) [Wiskostatin] | 92 | 101 | –
CC(C)CN(C[C@@H](O)[C@H](Cc1ccccc1)NC(=O)O[C@H]1CCOC1)S(=O)(=O)c1ccc(N)cc1 [Amprenavir] | 121 | 91 | –
CCCCCCCCCC(=O)O[C@H]1CC[C@H]2[C@@H]3CCC4=CC(=O)CC[C@@H]4[C@H]3CC[C@]12C [Nandrolone decanoate] | 113 | 117 | –
COc1c(-c2ccc3cc(NS(C)(=O)=O)ccc3c2)cc(-n2ccc(=O)[nH]c2=O)cc1C(C)(C)C [Dasabuvir] | 116 | 14 | –
CC(C)[C@H](N)C(=O)OCC(CO)OCn1cnc2c(=O)nc(N)[nH]c21 (some centres unmarked) [Valganciclovir hydrochloride] | 110 | 90 | –
Cc1cn([C@H]2O[C@@H](CO)[C@H](O)[C@H]2F)c(=O)[nH]c1=O [Clevudine] | 132 | 84 | –
Nc1nc2c(ncn2[C@@H]2O[C@H](CO)[C@@H](O)[C@H]2O)c(=O)[nH]1 [Guanosine] | 126 | 88 | –
Cc1cc(/C=C/C#N)cc(C)c1Nc1ccnc(Nc2ccc(C#N)cc2)n1 [Rilpivirine] | 132 | 71 | –
CCOC(=O)CCC(=O)O[C@H]1[C@H](O[C@@H]2[C@@H](C)[C@H](O[C@H]3C[C@@](C)(OC)[C@@H](O)[C@H](C)O3)[C@@H](C)C(=O)O[C@H](CC)[C@@](C)(O)[C@H](O)[C@@H](C)C(=O)[C@H](C)C[C@@]2(C)O)O[C@H](C)C[C@@H]1N(C)C [Erythromycin ethylsuccinate] | 107 | 60 | –
CN(C(=O)CN(CCO)CC(=O)N(C)C(C)(C)Cc1ccccc1)C(C)(C)Cc1ccccc1 [Oxethazaine] | 102 | 76 | –
CC(C)(C)C(=O)OCOP(=O)(COCCn1cnc2c(N)ncnc21)OCOC(=O)C(C)(C)C [Adefovir dipivoxil] | 74 | 138 | –
O=C(O)c1cc(=O)[nH]c(=O)[nH]1 [Orotic acid] | 105 | 85 | –
Oc1ccc(Cl)c2cccnc12 [Dermofongin] | 101 | – | 0.98
CC(C)=O.COC(=O)N[C@H](C(=O)N1CC2(CC2)C[C@H]1c1ncc(-c2ccc3c(c2)C(F)(F)c2cc(-c4ccc5nc([C@@H]6[C@H]7CC[C@H](C7)N6C(=O)[C@@H](NC(=O)OC)C(C)C)[nH]c5c4)ccc2-3)[nH]1)C(C)C [Ledipasvir acetone] | 172 | – | 0.48
Clc1ccc(COC(Cn2ccnc2)c2ccc(Cl)cc2Cl)cc1 (centres unmarked) [Econazole] | – | 100 | –

Compound | Viability Percent DMSO (Huh-7.5.1 cells) [Percent DMSO] | activity at 10 µM (18f-NLuc reporter virus) [%] | Normalized HAV production (18f-NLuc reporter virus)
O=c1[nH]c(=O)n([C@H]2C[C@H](O)[C@@H](CO)O2)cc1C(F)(F)F [Trifluridine] | 96 | 107 | –
C[C@@]1(F)[C@H](O)[C@@H](CO)O[C@H]1n1ccc(=O)[nH]c1=O [PSI6206] | 104 | – | 1.52
Clc1ccccc1C(c1ccccc1)(c1ccccc1)n1ccnc1 [Clotrimazole] | – | 85 | –
Nc1ncnc2c1ncn2[C@@H]1O[C@H](COP(=O)(O)O)[C@@H](O)[C@H]1O.O [Adenosine 5'-monophosphate monohydrate] | 115 | 93 | –
OC[C@H]1O[C@@H]2O[C@H]3[C@H](O)[C@@H](O)[C@@H](O[C@H]4[C@H](O)[C@@H](O)[C@@H](O[C@H]5[C@H](O)[C@@H](O)[C@@H](O[C@H]6[C@H](O)[C@@H](O)[C@@H](O[C@H]7[C@H](O)[C@@H](O)[C@@H](O[C@H]8[C@H](O)[C@@H](O)[C@@H](O[C@H]1[C@H](O)[C@H]2O)O[C@@H]8CO)O[C@@H]7CO)O[C@@H]6CO)O[C@@H]5CO)O[C@@H]4CO)O[C@@H]3CO [Beta-Cyclodextrin] | 117 | 72 | –
CC(=O)Oc1c(C)c(C)c2c(c1C)CCC(C)(CCC[C@H](C)CCC[C@H](C)CCCC(C)C)O2 (some centres unmarked) [Vitamin E Acetate] | 82 | 133 | –
O=c1[nH]c(=O)n([C@H]2C[C@H](O)[C@@H](CO)O2)cc1F [Floxuridine] | 86 | 42 | –
COC[C@H]1C[C@@H](c2ncc(-c3ccc4c(c3)COc3cc5c(ccc6nc([C@@H]7CC[C@H](C)N7C(=O)[C@@H](NC(=O)OC)C(C)C)[nH]c65)cc3-4)[nH]2)N(C(=O)[C@H](NC(=O)OC)c2ccccc2)C1 [Velpatasvir] | 121 | 52 | –
C[C@@H]1CC[C@H]2[C@@H](C)C(=O)O[C@@H]3O[C@@]4(C)CC[C@@H]1[C@]32OO4 [Artemisinin] | 101 | 76 | –
CC(C)(C)C#Cc1cc(N(C(=O)[C@H]2CC[C@H](C)CC2)[C@H]2CC[C@H](O)CC2)c(C(=O)O)s1 [Lomibuvir] | 125 | 97 | –
COc1ccc([C@H]2OC[C@H]3[C@@H]2CO[C@H]3c2ccc(O[C@@H]3O[C@H](CO)[C@@H](O)[C@H](O)[C@H]3O)c(OC)c2)cc1OC [Forsythin] | 127 | – | 1.06
Nc1nc2c(ncn2CCC(CO)CO)c(=O)[nH]1 [Penciclovir] | 96 | 111 | –
COc1cc(NC(=O)Nc2cccc(CNC(=O)O[C@H]3CCOC3)c2)ccc1-c1cnco1 [Merimepodib] | 159 | 34 | –
CCOCc1nc2c(N)nc3ccccc3c2n1CC(C)(C)O [Resiquimod] | 107 | 130 | –
O[C@H]1[C@H](O)[C@@H](O)[C@H](O)[C@@H](O)[C@H]1O [Inositol] | 93 | 122 | –
COC(=O)N[C@H](C(=O)N[C@@H](Cc1ccccc1)[C@@H](O)CN(Cc1ccc(-c2ccccn2)cc1)NC(=O)[C@@H](NC(=O)OC)C(C)(C)C)C(C)(C)C [Atazanavir] | 130 | 96 | –
C[C@H]1CC[C@@]2(O)C(C)(C)[C@@H]3CC[C@@]2(C)[C@H]1C3 [Patchouli alcohol] | 122 | – | 1.10
OC[C@H]1O[C@@H](O[C@@H]2OC=C[C@H]3[C@H](O)[C@@H]4O[C@]4(CO)[C@@H]23)[C@H](O)[C@@H](O)[C@@H]1O [Catalpol] | 128 | 98 | –
CN(C)CC[C@@H](c1ccc(Cl)cc1)c1ccccn1 [Dexchlorpheniramine Maleate] | 118 | 74 | –
Cc1cn([C@H]2C[C@H](N=[N+]=[N-])[C@@H](CO)O2)c(=O)[nH]c1=O [Zidovudine] | 92 | 131 | –
O=C(/C=C\n1cnc(-c2cc(C(F)(F)F)cc(C(F)(F)F)c2)n1)NNc1ccccn1 [Verdinexor] | 174 | 22 | –
CC(C)c1nc(CN(C)C(=O)N[C@H](C(=O)N[C@@H](Cc2ccccc2)C[C@H](O)[C@H](Cc2ccccc2)NC(=O)OCc2cncs2)C(C)C)cs1 [Ritonavir] | – | 34 | –
COC(=O)C1=C(C)NC(c2ncc(F)cc2F)=NC1c1ccc(F)cc1Cl (racemic) [Bay 41-4109 racemate] | – | – | 0.84
Clc1ccc(COC(Cn2ccnc2)c2ccc(Cl)cc2Cl)c(Cl)c1 (centres unmarked) [Miconazole] | – | 74 | –
O=C[C@H](O)[C@H]1OC(=O)[C@@H](O)[C@H]1O [Dicurone] | – | – | 1.16
